Marks after values point to notes of the source that are not given here.
What was measured:
[1] = system: human hepatocytes; assay: Stability in the presence of human hepatocytes; assay type: in vitro ADME; conditions: human hepatocytes, 5 μM, 37° C., average of duplicates; ^a = 0-120 minute time points
Experimental: (§1) Compounds of the invention were tested for stability in the presence of dog, rat and human hepatocytes over a 4 hour period by LC/MS/MS. The study was performed by Integrated Analytical Solutions, Berkeley, Calif.
(§2) Reference Standards and Solutions: Compounds of the invention were stored as powders at ambient temperature in a desiccator and protected from light. Reference stock solutions of Compound Nos. 50a, 50b, 79a, 82, 91a and 178d, as 20 mM in DMSO were prepared and subsequently diluted to 2 mM in MeOH to provide working stock solutions (WSS). Unused standard solutions were stored at −20° C.
(§3) Hepatocyte Preparation: Human (mixed gender), Beagle dog (male) and Sprague Dawley rat (male) cryopreserved hepatocytes were purchased from Life Technologies Corporation. Hepatocytes were removed from liquid nitrogen, quickly thawed in a 37° C. water bath and transferred to Hepatocyte Thawing/Plating Medium (Cryopreserved Hepatocyte Recovery Medium, CHRM, Life Technologies Inc.). The cells were pelleted by slow speed centrifugation (˜100×g, 6 min) and resuspended at a high cell density. Hepatocyte viability was determined by trypan blue exclusion. Hepatocyte incubation medium (Life Technologies, Inc.) was added to generate a cell density of 2.0×10^6 cells/mL.
(§4) Hepatocyte Incubations for Stability: The 2 mM WSS was diluted 1 in 200 in hepatocyte incubation medium (pH 7.4) to 10 μM. A solution containing control compounds was prepared similarly to contain 10 μM each of dextromethorphan and testosterone. The solutions of test compounds and controls at 10 μM in hepatocyte incubation medium were pre-incubated at 37° C. for 10 min. Aliquots (250 μL) of hepatocyte suspensions (at 2.0×10^6 cells/mL) were transferred to appropriate 48-well plates and pre-incubated at 37° C. for 10 minutes. Metabolism was initiated by adding 250 μL pre-incubated medium (containing test drug) to wells containing cells. A negative control reaction excluding hepatocytes was used to monitor aqueous stability and/or non-specific adsorption. The final reaction mixtures contained 5 μM of test or control compound and 1.0×10^6 cells/mL. All reactions were performed in duplicate and carried at 37° C. in an incubator. Dextromethorphan and testosterone were used as control drugs to verify hepatocyte activity.
(§5) Aliquots were removed from each metabolism reaction at 0, 0.5, 2 and 4 hours. The reactions were terminated by adding each aliquot to a vessel containing 2× volumes (80 μL) of Internal Standard Solution (acetonitrile containing 50 ng/mL 2-(2,8-dimethyl-3,4-dihydro-1H-pyrido[4,3-b]indol-5(2H)-yl)-1-(pyridin-4-yl)ethanol (ISS1), 50 ng/mL of 2-(2,8-dimethyl-3,4-dihydro-1H-pyrido[4,3-b]indol-5(2H)-yl)-1-(piperidin-1-yl)ethanone (ISS2) and 5 ng/mL diphenhydramine. Terminated reactions were centrifuged at 6000 g for 30 mins at 4° C. to remove the precipitated proteins and cell debris. Following centrifugation, 20 μL of each supernatant was transferred to a deep-well microplate and diluted with 5× volumes (100 μL) of 0.2% formic acid in water. Compound 178d samples were diluted with 5× volumes (100 μL) of 0.1% HFBA in water. Samples were analyzed by LC/MS/MS.
(§6) Calculation of Metabolism Parameters: Percent remaining was measured by dividing the analyte/IS peak area ratio at the designated sample time by the peak area ratio at time 0. ISS1 served as the IS for Compound No. 178d. ISS2 served as the IS for Compound nos. 50a, 50b, 79a, 82 and 91a. The metabolic half-life (T1/2) was calculated using all time points unless otherwise noted. The T1/2 values were calculated as 0.693/k, where k is the slope of the log analyte/internal standard peak area ratio versus time. Metabolism rate was calculated by dividing the starting concentration of substrate by the concentration of hepatocytes, then dividing by the T1/2 value.

[2] = system: dog hepatocytes; assay: Stability in the presence of dog hepatocytes; assay type: in vitro ADME, Beagle dog; conditions: dog hepatocytes, 5 μM, 37° C., average of duplicates; ^a = 0-120 minute time points
Experimental: as §1, §2, §3, §4, §5, §6

[3] = system: rat hepatocytes; assay: Stability in the presence of rat hepatocytes; assay type: in vitro ADME, Sprague Dawley rat; conditions: rat hepatocytes, 5 μM, 37° C., average of duplicates; ^a = 0-120 minute time points
Experimental: as §1, §2, §3, §4, §5, §6

With Cc1cc2c3c(n(CC(C)(O)c4ccncc4)c2cc1Cl)CCN1CCCC31 (single isomer, unassigned) [50b] the “T1/2 Human” value [1] was 82^a min, the “T1/2 Dog” value [2] was 100^a min and the “T1/2 Rat” value [3] was greater than 4 h.

— US20150315188A1, “COMPOUNDS AND METHODS FOR TREATMENT OF HYPERTENSION” (MEDIVATION TECHNOLOGIES, INC., priority 2012, published 2015)
